In general, pIC50 refers to the IC50 on a negative log10 scale, so that one unit is a factor of ten.

The nature of data set [1]: Cytotoxicity against BALB/cJRj mouse astrocytes/oligodendrocytes assessed as cell viability at 50 uM after 24 hrs by trypan blue-based cell counting method. The conditions noted are these: for viability at 24 h, 50 µM: BALB/cJRj, astrocytes/oligodendrocytes, read-out: Activity; for Activity: 24 h, 50 µM.
In data set [2] the test system is C6. Kind of data set: Cytotoxicity against rat C6 cells assessed as cell viability after 24 hrs by trypan blue-based cell counting method. It is filed as functional. The settings on record: C6, 24 h, read-out: LD50 (the source's name).
A short description of data set [3]: Growth inhibition of BALB/cJRj mouse astrocytes/oligodendrocytes at 50 uM after 24 hrs by trypan blue-based cell counting method.
Data set [4] is described as follows: Growth inhibition of human SK-N-BE cells after 24 hrs by trypan blue-based cell counting method. The class given is functional.
Data set [5] can be described thus: Growth inhibition of mouse 158N cells after 24 hrs by trypan blue-based cell counting method.
The nature of data set [6]: Cytotoxicity against mouse 158N cells assessed as cell viability after 24 hrs by trypan blue-based cell counting method. The settings on record: read-out: LD50.
The test system of data set [7] is C6. Kind of data set: Growth inhibition of rat C6 cells after 24 hrs by trypan blue-based cell counting method. The settings on record: C6, 24 h. It is filed as functional.
Data set [8] is described as follows: Cytotoxicity against human SK-N-BE cells assessed as cell viability after 24 hrs by trypan blue-based cell counting method. It is filed as functional. The settings on record: read-out: LD50 (the source's name).
In data set [9] the test system is C6. Kind of data set: Cytostatic activity against rat C6 cells assessed as growth inhibition after 24 hrs by trypan blue-based cell counting method. It is filed as functional. The settings on record: C6, 24 h.
A short description of data set [10]: Cytostatic activity against mouse 158N cells assessed as cell viability after 24 hrs by trypan blue-based cell counting method. The settings on record: read-out: LD50.
The nature of data set [11]: Cytostatic activity against mouse 158N cells assessed as growth inhibition after 24 hrs by trypan blue-based cell counting method.
For data set [12], the system named is C6. Kind of data set: Cytostatic activity against rat C6 cells assessed as cell viability after 24 hrs by trypan blue-based cell counting method. It is filed as functional. The settings on record: C6, 24 h, read-out: LD50 (the source's name).

Molecules are shown by their SMILES. pIC50: −log10 of the molar value. Where only a bound is given, the exact number is not on record here.

For the compound `CC(C)CCC[C@@H](C)[C@H]1CC[C@H]2[C@@H]3[C@@H](O)C=C4C[C@@H](O)CC[C@]4(C)[C@H]3CC[C@]12C`, the viability at 24 h, 50 µM in data set [1] came out at 19.9%. Also, the CC50 stood at 60 µM in the data set on C6 [2] and 55 µM in data set [8]. The Activity entry in [3] is reported as “Toxic”. Also, the pIC50 in data set [4] is 4.70; in data set [5], 4.82; in the data set on C6 [7] it was 4.82. Besides, in data set [6], the CC50 at 24 h turned out to be 15 µM.
`CC(C)CCC[C@@H](C)[C@H]1CC[C@H]2[C@@H]3[C@H](O)C=C4C[C@@H](O)CC[C@]4(C)[C@H]3CC[C@]12C`: the Activity result in [1] and in data set [3] was “Non-toxic” throughout. Further, the results for the CC50 (with C6 [2]; in [8]) were not below 160 µM and more than 160 µM, respectively. Further, the values for the pIC50 (in data set [4]; in data set [5]; in the data set with C6 [7]) were not above 3.80, 4.82 and 4.40, respectively. The CC50 at 24 h in [6] came out at 60 µM.
Take `CC(C)CCC[C@@H](C)[C@H]1CC[C@H]2[C@@H]3C(=O)C=C4C[C@@H](O)CC[C@]4(C)[C@H]3CC[C@]12C` [7-OXOCHOLESTEROL]: in data set [1], the viability at 24 h, 50 µM amounted to 70.5%. For the same compound, the CC50 (with C6 [2]; in data set [8]) was 60 µM in each case. The Activity result in data set [3] is “Toxic”. Moreover, the pIC50 in data set [4] is 4.70; in [5], 5.00; with C6 [7], 4.70. For the same compound, the CC50 at 24 h in data set [6] was 30 µM.
With `CC(C)CCC[C@@H](C)[C@H]1CC[C@H]2[C@@H]3CC=C4[C@H](O)[C@@H](O)CC[C@]4(C)[C@H]3CC[C@]12C`, the Activity entry in [1] and in data set [3] was “Non-toxic” throughout. Besides, the pIC50 in the data set with C6 [9] was not above 3.80; in data set [4], less than 3.80; in data set [11], 4.40. In data set [10], the CC50 at 24 h is more than 160 µM. Besides, the CC50 (in the data set with C6 [12]; in data set [8]) was more than 160 µM in each case.
In the case of `CC(C)CCC[C@@H](C)[C@H]1CC[C@H]2[C@@H]3CC=C4[C@@H](O)[C@@H](O)CC[C@]4(C)[C@H]3CC[C@]12C`, the Activity result in [1] and in data set [3] was “Non-toxic” each time. Further, the results for the negative logarithm of the IC50 (pIC50) (with C6 [9]; in [4]; in [11]) were not above 3.80, less than 3.80 and 4.52, respectively. For the same compound, in data set [10], the CC50 at 24 h is more than 160 µM. The CC50 (with C6 [12]; in [8]) was more than 160 µM in each case.

For the origin of these results see ChEMBL document CHEMBL3085777, “Improved synthesis and in vitro evaluation of the cytotoxic profile of oxysterols oxidized at C4 (4α- and 4β-hydroxycholesterol) and C7 (7-ketocholesterol, 7α- and 7β-hydroxycholesterol) on cells of the central nervous system” (Eur J Med Chem, 2013).
